The test addresses T1, S1P4 (Homo sapiens, UniProt O95977).
T1 construct: expressed in transfected cells
T1 sequence (O95977 1-384): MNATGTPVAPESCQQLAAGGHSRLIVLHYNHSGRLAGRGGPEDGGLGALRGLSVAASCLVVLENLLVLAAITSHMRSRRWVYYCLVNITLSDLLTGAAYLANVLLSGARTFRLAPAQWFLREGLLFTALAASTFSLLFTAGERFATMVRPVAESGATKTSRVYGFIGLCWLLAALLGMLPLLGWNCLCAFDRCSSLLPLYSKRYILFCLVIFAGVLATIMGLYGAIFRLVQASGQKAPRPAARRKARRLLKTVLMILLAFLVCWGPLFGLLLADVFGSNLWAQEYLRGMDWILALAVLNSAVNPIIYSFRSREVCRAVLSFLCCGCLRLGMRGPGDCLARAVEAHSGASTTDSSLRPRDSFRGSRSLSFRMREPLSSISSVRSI
The experiment in a line: EC50 for S1P4 'in this assay' (GTPγS binding or calcium mobilization, not specified). The class given is cell-based. The note with it: assay format not specified ('this assay'). How it is done: The selection of the clones to be tested in the GTPγS assay is based on the real time PCR assays. CHO clones expressing large amounts of human S1P4 are used in these experiments. Membrane proteins are prepared as described above. The basic protocol of GTPγ^35S-binding assay used is described in a recent publication (Brinkmann et al. 2002, J. Biol. Chem, 277, 21453) with the modifications described here below. To characterize the GTPγ^35S-binding to membrane proteins from CHO cells expressing S1P, WGA coated PVT beads (SPA-bead, Amersham Biosciences) are used. Because β-rays of GTPγ^35S have […] in water solution, the plates are centrifuged to minimize non-specific effects caused by the non bound GTPγ^35S. The assay is performed in 96-well Optiplates (Packard, Cat. N^o 6005190) in final volume of 225 μl/well. […] The plates are then centrifuged for 10 minutes at 2000 rpm and counted with a TopCount instrument (Packard). […]
CHO cells are plated in black Costar plate (96 or 384 well, 50,000 cells or 12,500 cells, respectively) in a MEM with FCS and cultured for 20-24 h at 37° C. in a CO2 incubator. […] After measuring the baseline for 40 sec, the agonist in HBSS is added and the fluorescence is measured at intervals of 2 sec for 3 to 5 min. […]

This note sets out measurements from patent US7754896B2, “Indol-alanine derivatives as selective S1P4-agonists” (Novartis AG, priority 2004, dated 2010).

The structures appear in SMILES notation.

For orientation: EC50 means the concentration at which the effect is half-maximal.

For the compound `CCc1ccccc1-c1cccc2[nH]c(C(=O)NC[C@@H](N)C(=O)O)cc12` [Example 1, 3-(4-(2-Ethylphenyl)-2-carboxamido-indole)-D-alanine], the EC50 is 0.432 µM.
